Test results taken from patent US8822500B2, “Tyrosine kinase inhibitors” (Chembridge Corporation, priority 2008, dated 2014).
“And” between values parts separate entries of the source, which are not always exact repeats. Equal values may be shown once. Read-outs that look alike come from different tables or passages of the source.

Legend:
[1] = Rat pharmacokinetics / bioavailability; assay type: in vivo
[2] = test system: SUDHL-1 lymphoma cells; assay: Cellular assay, 3 day cell viability (WST-1); assay type: cell-based; conditions: 3 days, WST-1; read-out: SUDHL-1 IC50
[3] = in vitro; conditions: rat, microsomes
[4] = test system: K299 lymphoma cells; assay: Cellular assay, 3 day cell viability (WST-1); assay type: cell-based; conditions: 3 days, read-out: K299 IC50
[5] = in vitro; conditions: human, microsomes
[6] = Guinea pig pharmacokinetics; conditions: for AUC(0-t): plasma, 10 mg/kg
[7] = Metabolic stability, Phase I microsome reactions; conditions: rat, microsomes
[8] = Metabolic stability, Phase I microsome reactions; assay type: in vitro ADME, mouse; conditions: mouse, pH 7.4, Phase I only, 1.0 mg/ml microsomes, read-out: Mouse LM-P1 Half-life
[9] = test system: U937 lymphoma cells; assay: Cellular assay, 3 day cell viability (WST-1); assay type: cell-based; conditions: Homo sapiens, U-937, 72 h; 3 days, WST-1; read-out: U937 IC50
[10] = biological target: hERG (human ether-a-go-go related gene) potassium channel (Homo sapiens (Human), UniProt Q12809); assay: hERG potassium channel current, automated patch clamp (PatchXpress 7000A);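 also: Four-point series of 0.3, 3, 10 and 30 µM, two cells recorded per concentration, 5 min exposure at each level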
[11] = biological target: hERG potassium channel (Homo sapiens (Human), UniProt Q12809); assay: as above; conditions: human; for inhibition at 5 min, 30 µM: 30 μM (low solubility at this concentration)
[12] = Mouse pharmacokinetics; conditions: for AUC: plasma, 10 mg/kg
[13] = Dog pharmacokinetics
[14] = Caco-2 cell permeation study; assay type: in vitro ADME; conditions: human, Caco-2, 10 μM;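 also: Caco-2 monolayers grown for 21–28 days with integrity confirmed by TEER, apical buffer HBSS with MES, basolateral buffer HBSS with HEPES, compound levels quantified by LC/MS/MS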
[15] = test system: NPM-ALK R1275Q BaF3 cells; assay: BaF3 stables cell viability (WST-1); conditions: Mus musculus, BaF3, read-out: BaF3 Stables IC50 nM R1275Q
[16] = biological target: RET (Homo sapiens (Human), UniProt P07949); assay: In vitro kinase activity assay (LANCE TR-FRET); assay type: biochemical; conditions: read-out: RET (nM) IC50
[17] = biological target: TrkB (Homo sapiens (Human), UniProt Q16620); assay: In vitro kinase activity assay (LANCE TR-FRET); assay type: biochemical; conditions: read-out: TrkB (nM) IC50
[18] = test system: FLT3-ITD BaF3 cells; assay: BaF3 stables cell viability (WST-1); conditions: Mus musculus, BaF3, read-out: BaF3 Stables IC50 nM FLT3-ITD
[19] = test system: NB-1 neuroblastoma cells; assay: Cellular assay, 3 day cell viability (WST-1); assay type: cell-based; conditions: 72 h, 3 days, WST-1, read-out: NB-1 IC50
[20] = microsomes, 0.5 μM, pH 7.4
[21] = biological target: ROS (Homo sapiens (Human), UniProt P08922); assay: In vitro kinase activity assay (LANCE TR-FRET); assay type: biochemical; conditions: read-out: ROS (nM) IC50
[22] = test system: EML4-ALK BaF3 cells; assay: BaF3 stables cell viability (WST-1); conditions: Mus musculus, BaF3, read-out: BaF3 Stables IC50 nM EML4-ALK
[23] = biological target: ALK (Homo sapiens (Human), UniProt Q9UM73); assay: In vitro kinase activity assay (LANCE TR-FRET); assay type: biochemical; conditions: read-out: GTx-ALK IC50;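 also: kinase reactions with ATP and a poly-GT peptide substrate, phosphorylated product read by time-resolved FRET, 11-point curve from 10^−11 to 10^−5 M, DMSO as negative control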
[24] = biological target: ALK R1275Q (Homo sapiens (Human), UniProt Q9UM73, R1275Q); assay: Cell free kinase assay (Carna Biosciences kinases); assay type: biochemical
[25] = test system: NPM-ALK C1156Y BaF3 cells; assay: BaF3 stables cell viability (WST-1); conditions: Mus musculus, BaF3, read-out: BaF3 Stables IC50 nM C1156Y
[26] = test system: EML4-ALK R1275Q BaF3 cells; assay: BaF3 stables cell viability (WST-1); conditions: Mus musculus, BaF3, read-out: BaF3 Stables IC50 nM R1275Q, EML4-ALK construct
[27] = test system: NPM-ALK BaF3 cells; assay: BaF3 stables cell viability (WST-1); conditions: Mus musculus, BaF3, read-out: BaF3 Stables IC50 nM NPMALK
[28] = test system: EML4-ALK C1156Y BaF3 cells; assay: BaF3 stables cell viability (WST-1); conditions: Mus musculus, BaF3, read-out: BaF3 Stables IC50 nM C1156Y
[29] = biological target: ALK (WT) (Homo sapiens (Human), UniProt Q9UM73); assay: Cell free kinase assay (Carna Biosciences kinases); assay type: biochemical
[30] = male, Sprague-Dawley, plasma, iv, 10 mg/kg I.V.
[31] = male, Sprague-Dawley, plasma, po, 10 mg/kg P.O.
[32] = Individual Data Points (% Inhibition)
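For Human LM-P1 Half-life (min) in this document: liver microsomes at 1.0 mg/ml with NADPH regenerating system, 37 °C, sampled at 0, 5, 10, 30 and 60 min, parent compound quantified by LC-MS/MS.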

Chain of hERG potassium channel (Q12809 whole entry): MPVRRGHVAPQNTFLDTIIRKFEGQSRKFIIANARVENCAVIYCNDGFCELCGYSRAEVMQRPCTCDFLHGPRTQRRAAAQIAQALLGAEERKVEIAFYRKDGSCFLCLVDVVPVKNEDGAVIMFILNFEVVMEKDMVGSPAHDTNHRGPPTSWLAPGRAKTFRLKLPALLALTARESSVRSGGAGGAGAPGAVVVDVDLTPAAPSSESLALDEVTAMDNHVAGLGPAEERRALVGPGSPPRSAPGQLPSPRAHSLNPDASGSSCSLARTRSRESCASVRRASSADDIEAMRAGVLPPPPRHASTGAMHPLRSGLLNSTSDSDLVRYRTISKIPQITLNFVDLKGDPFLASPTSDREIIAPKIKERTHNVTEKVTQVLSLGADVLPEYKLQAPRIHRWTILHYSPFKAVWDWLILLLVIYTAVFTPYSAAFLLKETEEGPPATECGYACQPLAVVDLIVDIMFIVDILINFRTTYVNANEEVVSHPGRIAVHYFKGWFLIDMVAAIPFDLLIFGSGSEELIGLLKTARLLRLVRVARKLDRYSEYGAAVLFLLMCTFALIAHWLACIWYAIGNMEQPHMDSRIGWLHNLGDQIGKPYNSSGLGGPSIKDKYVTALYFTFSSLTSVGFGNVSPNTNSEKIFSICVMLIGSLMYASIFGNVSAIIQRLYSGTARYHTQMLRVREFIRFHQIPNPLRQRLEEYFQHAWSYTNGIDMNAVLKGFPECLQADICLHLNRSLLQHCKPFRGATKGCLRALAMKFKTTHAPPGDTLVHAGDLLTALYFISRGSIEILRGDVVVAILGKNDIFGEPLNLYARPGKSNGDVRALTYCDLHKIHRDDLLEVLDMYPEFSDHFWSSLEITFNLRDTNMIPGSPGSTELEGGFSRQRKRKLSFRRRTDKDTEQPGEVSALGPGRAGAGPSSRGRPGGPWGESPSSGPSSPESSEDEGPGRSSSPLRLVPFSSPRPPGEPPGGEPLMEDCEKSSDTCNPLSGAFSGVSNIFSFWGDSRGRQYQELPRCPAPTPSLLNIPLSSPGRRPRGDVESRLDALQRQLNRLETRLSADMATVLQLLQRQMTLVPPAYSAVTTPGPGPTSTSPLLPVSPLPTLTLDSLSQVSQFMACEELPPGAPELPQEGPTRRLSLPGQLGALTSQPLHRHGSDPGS
Chain of hERG (human ether-a-go-go related gene) potassium channel (Q12809 whole entry): as above
Chain of ALK (Q9UM73 19-1620): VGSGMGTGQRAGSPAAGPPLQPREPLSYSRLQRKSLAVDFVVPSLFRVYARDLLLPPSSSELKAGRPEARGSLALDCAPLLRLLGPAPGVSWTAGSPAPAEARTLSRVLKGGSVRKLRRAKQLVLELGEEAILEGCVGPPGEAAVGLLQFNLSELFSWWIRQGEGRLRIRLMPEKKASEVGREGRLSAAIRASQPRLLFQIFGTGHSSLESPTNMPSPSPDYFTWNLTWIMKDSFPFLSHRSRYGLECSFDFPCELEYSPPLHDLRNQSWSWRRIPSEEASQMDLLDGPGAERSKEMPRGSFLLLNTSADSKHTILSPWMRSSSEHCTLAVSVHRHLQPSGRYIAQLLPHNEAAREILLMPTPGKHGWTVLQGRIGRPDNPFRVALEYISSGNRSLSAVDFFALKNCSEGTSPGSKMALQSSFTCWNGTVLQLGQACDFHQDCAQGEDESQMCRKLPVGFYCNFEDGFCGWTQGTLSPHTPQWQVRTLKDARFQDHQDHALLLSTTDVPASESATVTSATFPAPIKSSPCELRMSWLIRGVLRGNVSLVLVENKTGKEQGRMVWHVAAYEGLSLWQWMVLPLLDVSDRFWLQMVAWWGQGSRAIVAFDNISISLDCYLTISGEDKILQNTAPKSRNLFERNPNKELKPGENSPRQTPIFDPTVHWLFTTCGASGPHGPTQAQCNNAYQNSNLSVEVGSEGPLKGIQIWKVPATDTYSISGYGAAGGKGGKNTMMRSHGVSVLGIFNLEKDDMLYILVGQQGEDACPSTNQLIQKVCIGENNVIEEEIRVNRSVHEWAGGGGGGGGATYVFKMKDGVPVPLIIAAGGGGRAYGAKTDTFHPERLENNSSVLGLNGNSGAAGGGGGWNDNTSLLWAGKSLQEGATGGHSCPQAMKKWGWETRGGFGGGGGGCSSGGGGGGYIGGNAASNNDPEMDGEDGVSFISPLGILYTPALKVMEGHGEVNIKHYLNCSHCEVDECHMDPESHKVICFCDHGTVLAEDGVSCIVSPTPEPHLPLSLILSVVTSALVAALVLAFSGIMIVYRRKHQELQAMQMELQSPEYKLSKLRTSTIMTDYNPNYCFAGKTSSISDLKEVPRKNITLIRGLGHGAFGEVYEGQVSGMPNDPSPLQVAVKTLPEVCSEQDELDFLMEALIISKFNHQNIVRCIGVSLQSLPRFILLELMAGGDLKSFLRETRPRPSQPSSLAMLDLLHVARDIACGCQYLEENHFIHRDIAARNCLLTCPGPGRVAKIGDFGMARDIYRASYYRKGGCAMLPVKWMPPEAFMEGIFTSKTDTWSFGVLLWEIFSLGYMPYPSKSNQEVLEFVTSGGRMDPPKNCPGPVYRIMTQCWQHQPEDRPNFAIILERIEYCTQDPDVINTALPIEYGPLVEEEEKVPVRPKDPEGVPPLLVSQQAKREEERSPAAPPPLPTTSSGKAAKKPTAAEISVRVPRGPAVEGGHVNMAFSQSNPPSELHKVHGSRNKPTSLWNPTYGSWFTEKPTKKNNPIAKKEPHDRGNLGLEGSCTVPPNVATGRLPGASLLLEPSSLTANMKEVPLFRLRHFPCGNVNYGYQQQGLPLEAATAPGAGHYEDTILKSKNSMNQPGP
Chain of ALK R1275Q (Q9UM73 1060-1620 R1275Q): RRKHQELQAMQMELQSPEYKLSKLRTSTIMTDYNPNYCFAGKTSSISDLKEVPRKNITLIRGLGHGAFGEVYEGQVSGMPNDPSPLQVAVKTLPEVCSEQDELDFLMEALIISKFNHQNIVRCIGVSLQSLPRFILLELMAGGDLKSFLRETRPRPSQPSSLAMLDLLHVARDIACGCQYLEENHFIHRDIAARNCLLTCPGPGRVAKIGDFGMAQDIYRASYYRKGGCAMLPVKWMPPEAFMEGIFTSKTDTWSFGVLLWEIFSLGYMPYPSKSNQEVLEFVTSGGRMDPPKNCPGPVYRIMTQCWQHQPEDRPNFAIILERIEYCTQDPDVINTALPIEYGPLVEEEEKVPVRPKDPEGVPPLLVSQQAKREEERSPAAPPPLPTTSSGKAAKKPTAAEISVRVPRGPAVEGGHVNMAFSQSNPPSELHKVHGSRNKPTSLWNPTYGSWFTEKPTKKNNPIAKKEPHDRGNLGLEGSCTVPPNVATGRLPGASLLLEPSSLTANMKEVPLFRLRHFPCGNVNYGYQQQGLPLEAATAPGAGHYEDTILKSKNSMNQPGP
Chain of ALK (WT) (Q9UM73 1060-1620): as the sequence (Q9UM73 1060-1620 R1275Q) above, with Q216R counted along it

SMILES: C[C@@H](Cc1c(F)c(F)cc(F)c1F)Nc1cc[nH]c(=O)c1-c1nc2cc3c(cc2[nH]1)CN(CCN(C)C)C3=O [Compound 1, (S)-6-(2-(Dimethylamino)ethyl)-2-(2-oxo-4-((1-(2,3,5,6-tetrafluorophenyl)propan-2-yl)amino)-1,2-dihydropyridin-3-yl)-6,7-dihydroimidazo[4,5-f]isoindol-5(3H)-one]
- IV_AUC0-1440 Rat 10 mpk ([1]; 10 mg/kg I.V.): 329 µg·min/mL
- PO_AUC0-1440 Rat 10 mpk ([1]; 10 mg/kg P.O.): 0.943 µg·min/mL
- MRT [1, 30]: 22.7 h
- clearance [1, 30]: 25.5 mL/min/kg
- half-life [1, 30]: 22.1 h
- Vd ([1]; male, Sprague-Dawley, plasma, iv, 10 mg/kg I.V., read-out: Vss): 23.9 L/kg
- Cmax [1, 31]: 2.21 ng/mL
- Tmax [1, 31]: 1.88 h
- bioavailability ([1]; male, Sprague-Dawley, plasma, po, 10 mg/kg P.O., read-out: Rat F %): 0.287%
- IC50 [2]: 22 nM
- half-life at 0.5 μM ([3]; pH 7.4): 8.43 min
- microsomal CLint at 0.5 μM ([3]; pH 7.4, Rat LM-P1 CL (ul/min/mg)): 82.2 µL/min/mg
- IC50 ([4]; 72 h): 76 nM
- IC50 [4]: 73 nM
- microsomal CLint at 0.5 μM ([5]; pH 7.4, Human LM-P1 CL (ul/min/mg)): 5.87 µL/min/mg
- half-life at 0.5 μM ([5]; pH 7.4, Human LM-P1 Half-life (min)): 1.97 h
- F ([6]; 10 mg/kg PO): 1%
- AUC(0-t) ([6]; iv): 3570 ng·h/mL
- AUC(0-t) ([6]; po): 37.2 ng·h/mL
- microsomal CLint at 0.5 μM ([7]; pH 7.4): 100 µL/min/mg
- half-life at 0.5 μM ([7]; pH 7.4, Rat LM-P1 Half-life (min), Phase I only, 0.5 μM, 1.0 mg/ml microsomes): 6.99 min
- half-life at 0.5 μM [8]: 8.4 min
- IC50 [9]: 1600 nM
- IC50 [10]: 6250 nM
- Individual Data Points (% Inhibition) ([10]; 0.3 μM): 5.0%
- Individual Data Points (% Inhibition) ([10]; 3 μM): 36.3%
- Individual Data Points (% Inhibition) ([10]; 10 μM): 49.4%
- Individual Data Points (% Inhibition) ([10]; 30 μM (low solubility at this concentration)): 62.7%
- inhibition at 5 min, 0.3 µM [11, 32]: 5.9%
- inhibition at 5 min, 3 µM [11, 32]: 43.6%
- inhibition at 5 min, 10 µM [11, 32]: 59.4%
- inhibition at 5 min, 30 µM [11, 32]: 71.1%
- inhibition at 5 min, 0.3 µM ([11]; Mean % hERG Inhibition): 5.5%
- inhibition at 5 min, 3 µM ([11]; Mean % hERG Inhibition): 39.9%
- inhibition at 5 min, 10 µM ([11]; Mean % hERG Inhibition): 54.4%
- inhibition at 5 min, 30 µM ([11]; Mean % hERG Inhibition): 66.9%
- F ([12]; 10 mg/kg SC): 30%
- AUC ([12]; iv): 1770 ng·h/mL
- AUC ([12]; sc): 522 ng·h/mL
- F ([13]; 5 mg/kg PO): 12%
- AUC(0-t) ([13]; plasma, iv, 1 mg/kg): 483 ng·h/mL
- AUC ([13]; plasma, po, 5 mg/kg): 287 ng·h/mL
- Papp A→B at 2 h, 10 μM ([14]; apical pH 6.5, 2 h): < 0.2 ×10⁻⁶ cm/s
- Papp B→A at 2 h, 10 μM ([14]; basolateral pH 7.4, 2 h): 19.9 ×10⁻⁶ cm/s
- IC50 [15]: 279 ± 21 nM
- IC50 [16]: 3.53 nM
- IC50 [17]: 2.06 nM
- IC50 [18]: > 3 nM
- IC50 [19]: 177 nM
- Human LM-P1 Half-life [20]: >2 h
- IC50 [21]: 0.205 nM

SMILES: Cc1ccc(F)cc1C[C@H](C)Nc1cc[nH]c(=O)c1-c1nc2cc3c(cc2[nH]1)CN(CCN(C)C)C3=O (stereo in doubt) [Compound 45, 2-(4-(1-(5-Fluoro-2-methylphenyl)propan-2-ylamino)-2-oxo-1,2-dihydropyridin-3-yl)-6-(2-(dimethylamino)ethyl)-6,7-dihydroimidazo[4,5-f]isoindole-5(1H)-one]
- IC50 [22]: 66 ± 2.7 nM
- IC50 [23]: 7 nM and 14 nM
- IC50 ([24]; read-out: Cell Free IC50 (nM) R1275O): 16.8 nM
- cell free R1275Q resistance ([24]; vs ALK (WT)): 4 fold
- IC50 [25]: 72 ± 1.2 nM
- IC50 [26]: ~90 nM
- IC50 [15]: 81 ± 4.2 nM
- IC50 [27]: 46 ± 2 nM
- IC50 [28]: 90 ± 3.2 nM
- IC50 [18]: > 1 nM
- IC50 [29]: 3.3 nM
